Laboratory results from the supplement of paper PMC10307832.

Legend:
Test in all cases: relative viability (nuclei count vs DMSO), 5 days (fraction); higher = more cells survive
[1] = compound: CC1=C(N=C(N=C1N)[C@H](CC(=O)N)NC[C@@H](C(=O)N)N)C(=O)N[C@@H]([C@H](C2=CN=CN2)OC3C(C(C(C(O3)CO)O)O)OC4C(C(C(C(O4)CO)O)OC(=O)N)O)C(=O)N[C@H](C)[C@H]([C@H](C)C(=O)N[C@@H]([C@@H](C)O)C(=O)NCCC5=NC(=CS5)C6=NC(=CS6)C(=O)NCCC[S+](C)C)O [Bleomycin] + Cc1cc(Nc2cc(N3CCN(C)CC3)nc(Sc3ccc(NC(=O)C4CC4)cc3)n2)n[nH]1 [Tozasertib] (partner 0.1 µM); conditions: main component drawn
Summary of the method: (§1)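 Lung cancer cell lines in 1536-well plates were dosed by pin tool the day after seeding, either with one drug alone or with a fixed anchor-drug dose plus five library-drug doses (not always all listed) in √10 steps. After 5 days, cells were fixed and their nuclei stained in one step (final 0.05% Triton X-100, 1% formaldehyde, 1 ug/ml Hoechst), then counted on 4× images. Relative viability is the nuclei count in treated wells divided by that in vehicle wells. Values are medians of duplicate plates.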

[2] = compound: COc1cc([C@@H]2c3cc4c(cc3[C@@H](O[C@@H]3O[C@@H]5CO[C@@H](C)O[C@H]5[C@H](O)[C@H]3O)[C@H]3COC(=O)[C@H]23)OCO4)cc(OC)c1O [Etoposide] + CC(=O)c1c(C)c2cnc(Nc3ccc(N4CCNCC4)cn3)nc2n(C2CCCC2)c1=O [Palbociclib] (partner 0.5 µM)
Summary of the method: as §1

[3] = compound: COc1cc([C@@H]2c3cc4c(cc3[C@@H](O[C@@H]3O[C@@H]5CO[C@@H](C)O[C@H]5[C@H](O)[C@H]3O)[C@H]3COC(=O)[C@H]23)OCO4)cc(OC)c1O [Etoposide] + CC1(C)CCC(c2ccc(Cl)cc2)=C(CN2CCN(c3ccc(C(=O)NS(=O)(=O)c4ccc(N[C@H](CCN5CCOCC5)CSc5ccccc5)c(S(=O)(=O)C(F)(F)F)c4)cc3)CC2)C1 [Navitoclax] (partner 0.5 µM)
Summary of the method: as §1

[4] = compound: COc1cc([C@@H]2c3cc4c(cc3[C@@H](O[C@@H]3O[C@@H]5CO[C@@H](C)O[C@H]5[C@H](O)[C@H]3O)[C@H]3COC(=O)[C@H]23)OCO4)cc(OC)c1O [Etoposide] + C[C@]1(O)C[C@@H](c2nc(-c3ccc4ccc(-c5ccccc5)nc4c3)c3c(N)nccn32)C1 [Linsitinib] (partner 1 µM)
Summary of the method: as §1

Cell Line	relative viability ([1]; first compound 0.01 µM)	relative viability ([1]; first compound 0.03162 µM)	relative viability ([1]; first compound 0.1 µM)	relative viability ([1]; first compound 0.3162 µM)	relative viability ([1]; first compound 1 µM)	relative viability ([2]; first compound 0.01 µM)	relative viability ([2]; first compound 0.03162 µM)	relative viability ([2]; first compound 0.1 µM)	relative viability ([2]; first compound 0.3162 µM)	relative viability ([2]; first compound 1 µM)	relative viability ([3]; first compound 0.01 µM)	relative viability ([3]; first compound 0.03162 µM)	relative viability ([3]; first compound 0.1 µM)	relative viability ([3]; first compound 0.3162 µM)	relative viability ([3]; first compound 1 µM)	relative viability ([4]; first compound 0.01 µM)	relative viability ([4]; first compound 0.03162 µM)	relative viability ([4]; first compound 0.1 µM)	relative viability ([4]; first compound 0.3162 µM)	relative viability ([4]; first compound 1 µM)
LU99A	0.27	0.25	0.216	0.193	0.147	0.392	0.427	0.266	0.226	0.166	0.828	0.898	0.45	0.311	0.189	0.495	0.614	0.333	0.264	0.201
HCC-827	0.419	0.453	0.332	0.311	0.205	0.418	0.475	0.341	0.161	0.156	1.03	0.985	0.956	0.613	0.331	0.983	0.919	0.931	0.659	0.33
LK-2	0.178	0.159	0.179	0.179	0.177	0.618	0.588	0.451	0.412	0.275	0.815	0.945	0.643	0.498	0.267	0.522	0.442	0.295	0.442	0.18
HCC-366	0.0825	0.11	0.0755	0.0502	0.0319	0.341	0.375	0.257	0.071	0.0568	0.923	1.05	0.864	0.306	0.0332	0.474	0.678	0.337	0.166	0.0566
BEN	0.487	0.519	0.452	0.431	0.475	0.491	0.487		0.454	0.539	0.0656	0.0585		0.057	0.0632	0.695	0.983		0.78	0.681
NCI-H2347	0.451	0.44	0.52	0.221	0.413	0.314	0.397	0.375	0.381	0.346	0.809	0.626	0.405	0.354	0.28	1.23	1.08	0.592	0.523	0.408
NCI-H1395	0.646	0.695	0.619	0.407	0.404	0.625	0.595	0.555	0.638	0.545	1.21	1.15	0.893	0.988	0.682	1	1.33	0.836	0.897	0.656
201T	0.874	0.943	0.894	0.642	0.548	0.366	0.35	0.325	0.349	0.385	1.25	1.23	1.13	1.14	1.02	1.12	1.04	0.899	1	0.745
NCI-H520	0.412	0.422	0.486	0.33	0.358	0.256	0.245	0.193	0.254	0.227	0.985	1	1.08	0.951	0.956	0.927	1.04	1.1	0.895	0.9
NCI-H727	0.761	0.578	0.732		0.596	0.67	0.675	0.581	0.689	0.767	0.439	0.553	0.369	0.488	0.319	0.239	0.286	0.3	0.337	0.349
HCC-15	0.308	0.343	0.303	0.148	0.153	0.623	0.695	0.828	0.468	0.244	0.652	0.647	0.626	0.31	0.125	0.892	0.903	0.755	0.396	0.16
NCI-H460	0.0837	0.101	0.153	0.0462	0.0258	0.131	0.11	0.111	0.0408	0.0313	0.93	0.796	0.6	0.0627	0.0154	0.684	0.601	0.447	0.0349	0.0212
EPLC-272H	0.232	0.243	0.191	0.127	0.173	0.359	0.284	0.326	0.339	0.304	1.22	1.25	0.71	0.962	0.436	1.29	1.12	0.693	1.14	0.504
